Like-named read-outs stand apart in the source and are kept apart here.
Tests used:
[1] = test system: A2780 cells; assay: In-vitro cell proliferation assay (SRB), A2780 cells; assay type: cell-based; details: Homo sapiens, A2780, 72 h, A2780 cells, 72 hours, read-out: A2780 IC50
Procedure, shortened: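 Viable cells measured by SRB staining after 6% TCA fixation, absorbance 570 nm. Media-only background subtracted; % inhibition derived at two compound concentrations.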

[2] = target: T1, NAMPT (Homo sapiens, UniProt P43490); assay: Biochemical inhibition assay: NAMPT enzymatic reaction, NMN quantified by mass spectrometry; details: read-out: Biochem IC50
T1 construct: His tag; host or cells: E. coli
Procedure, shortened: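 Inhibition of E. coli-expressed His-tagged human NAMPT, measured as NMN formation by mass spectrometry after a 30 min room-temperature reaction containing 1 μM NAM, 100 μM PRPP and 2.5 mM ATP.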

T1 sequence (P43490 whole entry): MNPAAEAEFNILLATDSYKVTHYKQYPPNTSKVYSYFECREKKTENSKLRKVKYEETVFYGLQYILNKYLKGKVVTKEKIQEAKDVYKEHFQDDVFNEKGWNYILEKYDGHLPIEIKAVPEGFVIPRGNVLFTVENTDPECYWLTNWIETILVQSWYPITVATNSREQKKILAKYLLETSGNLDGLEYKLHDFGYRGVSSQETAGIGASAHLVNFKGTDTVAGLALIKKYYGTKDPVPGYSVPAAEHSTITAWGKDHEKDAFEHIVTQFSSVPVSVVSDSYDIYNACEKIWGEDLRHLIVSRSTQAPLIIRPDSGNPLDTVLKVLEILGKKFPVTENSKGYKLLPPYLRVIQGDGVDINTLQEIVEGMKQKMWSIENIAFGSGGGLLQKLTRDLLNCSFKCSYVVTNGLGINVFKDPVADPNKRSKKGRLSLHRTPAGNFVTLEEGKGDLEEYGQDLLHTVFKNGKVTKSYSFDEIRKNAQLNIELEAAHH

| Structure (SMILES) | IC50 ([1]; SRB) | IC50 ([2]; NAMPT enzymatic assay) | IC50 ([2]; NAMPT enzymatic reaction) | IC50 ([1]; SRB assay) |
| --- | --- | --- | --- | --- |
| O=C(NCc1ccc(S(=O)(=O)c2cnc3ccccc3c2)cc1)c1cnc2nccn2c1 [N-{[4-(quinoline-3-sulfonyl)phenyl]methyl}imidazo[1,2-a]pyrimidine-6-carboxamide] | 3.6 nM | 2.5 nM |  |  |
| COc1cc(C)c(S(=O)(=O)c2ccc(CNC(=O)c3cnc4[nH]ncc4c3)cc2)cc1C [N-({4-[(4-methoxy-2,5-dimethylbenzene)sulfonyl]phenyl}methyl)-1H-pyrazolo[3,4-b]pyridine-5-carboxamide] | 23.6 nM |  | 36.8 nM |  |
| O=C(NCc1ccc(S(=O)(=O)c2cc(F)ccc2Cl)cc1)c1cc2cnccc2[nH]1 | 12.1 nM |  | 28.1 nM |  |
| COc1cc(C)cc(S(=O)(=O)c2ccc(CNC(=O)c3cnc4[nH]ncc4c3)cc2)c1OC | 58.6 nM |  | 146 nM |  |
| CNS(=O)(=O)c1ccccc1S(=O)(=O)c1ccc(CNC(=O)c2cnc3nccn3c2)cc1 | 1000 to 10000 nM | 30.4 nM |  |  |
| CCc1ccccc1S(=O)(=O)c1ccc(CNC(=O)c2cc3ccncc3s2)cc1 [N-({4-[(2-ethylbenzene)sulfonyl]phenyl}methyl)thieno[2,3-c]pyridine-2-carboxamide] |  |  | 5 nM | 2.9 nM |
| COc1ccc(F)cc1NS(=O)(=O)c1ccc(CNC(=O)c2cc3cnccc3[nH]2)cc1 [N-({4-[(5-fluoro-2-methoxyphenyl)sulfamoyl]phenyl}methyl)-1H-pyrrolo[3,2-c]pyridine-2-carboxamide] |  |  | 232 nM | > 30000 nM |
| O=C(NCc1ccc(S(=O)(=O)c2ccc(Cl)c(Cl)c2)cc1)c1cc2ccncc2o1 | 4.8 nM |  | 10.4 nM |  |
| COc1cc(C)cc(OC)c1S(=O)(=O)c1ccc(CNC(=O)c2cc3ccncc3o2)cc1 [N-({4-[(2,6-dimethoxy-4-methylbenzene)sulfonyl]phenyl}methyl)furo[2,3-c]pyridine-2-carboxamide] | 23 nM |  | 5 nM |  |
| Cn1ncc(S(=O)(=O)c2ccc(CNC(=O)c3cnc4[nH]ncc4c3)cc2)c1C(F)(F)F [N-({4-[1-methyl-5-(trifluoromethyl)-1H-pyrazole-4-sulfonyl]phenyl}methyl)-1H-pyrazolo[3,4-b]pyridine-5-carboxamide] | 43.4 nM | 53.4 nM |  |  |
| O=C(NCc1ccc(S(=O)(=O)N2CCCCC2)cc1)c1ccn2ccnc2c1 [N-{[4-(piperidine-1-sulfonyl)phenyl]methyl}imidazo[1,2-a]pyridine-7-carboxamide] |  |  | > 100 nM | > 500 nM |
| CCOc1cc(F)ccc1S(=O)(=O)c1ccc(CNC(=O)c2cc3cnccc3[nH]2)cc1 [N-({4-[(2-ethoxy-4-fluorobenzene)sulfonyl]phenyl}methyl)-1H-pyrrolo[3,2-c]pyridine-2-carboxamide] | 1.8 nM |  | 3.4 nM |  |
| COc1cc(C)cc(S(=O)(=O)c2ccc(CNC(=O)c3ccc4nccn4c3)cc2)c1 | 1.6 nM |  | 5.3 nM |  |
| COc1ccc(C(C)C)cc1S(=O)(=O)c1ccc(CNC(=O)c2cc3ccncc3s2)cc1 [N-[(4-{[2-methoxy-5-(propan-2-yl)benzene]sulfonyl}phenyl)methyl]thieno[2,3-c]pyridine-2-carboxamide] |  |  | 9 nM | 6.2 nM |
| O=C(NCc1ccc(S(=O)(=O)c2ccc(OCC(F)(F)F)c(F)c2)cc1)c1cnc2nccn2c1 | 7.3 nM | 4.4 nM |  |  |
| COc1cc(C)cc(OC)c1S(=O)(=O)c1ccc(CNC(=O)c2cc3ccncc3s2)cc1 [N-({4-[(2,6-dimethoxy-4-methylbenzene)sulfonyl]phenyl}methyl)thieno[2,3-c]pyridine-2-carboxamide] |  |  | 7 nM | 3 nM |
| CSc1ccc(S(=O)(=O)c2ccc(CNC(=O)c3cc4ccncc4o3)cc2)cc1F | 11.2 nM | 12.3 nM |  |  |
| COc1ccccc1S(=O)(=O)c1ccc(CNC(=O)c2cc3cnccc3[nH]2)cc1 [N-({4-[(2-methoxybenzene)sulfonyl]phenyl}methyl)-1H-pyrrolo[3,2-c]pyridine-2-carboxamide] |  |  | 9 nM | 7 nM |
| Cn1ncc2cc(C(=O)NCc3ccc(S(=O)(=O)c4ccccc4)cc3)cnc21 [N-{[4-(benzenesulfonyl)phenyl]methyl}-1-methyl-1H-pyrazolo[3,4-b]pyridine-5-carboxamide] |  |  | 1730 nM | > 30000 nM |
| COc1cc(S(=O)(=O)c2ccc(CNC(=O)c3cnc4nccn4c3)cc2)ccc1Cl | 5.2 nM |  | 2.7 nM |  |
| CSc1ccc(S(=O)(=O)c2ccc(CNC(=O)c3ccc4nccn4c3)cc2)cc1F | 2.7 nM | 5.6 nM |  |  |
| O=C(NCc1ccc(S(=O)(=O)c2cccc(N3CCCCC3)c2)cc1)c1cc2ccncc2o1 [N-[(4-{[3-(piperidin-1-yl)benzene]sulfonyl}phenyl)methyl]furo[2,3-c]pyridine-2-carboxamide] | 12.7 nM | 11.3 nM |  |  |
| CC(C)Oc1ccc(S(=O)(=O)c2ccc(CNC(=O)c3cc4ccncc4o3)cc2)cc1 | 5.7 nM | 6.8 nM |  |  |

Reference: US12336981B2, “Compounds and compositions for the inhibition of NAMPT” (Valo Health, Inc., priority 2010, dated 2025)
